# Test results reported in ChEMBL document CHEMBL5614376, “Discovery of MT-1207: A Novel, Potent Multitarget Inhibitor as a Promising Clinical Candidate for the Treatment of Hypertension” (J Med Chem, 2024).
# Columns and labels:
# Format in all cases: functional
# Rattus norvegicus [1] = test: Effect on postural hypotension in Sprague-Dawley rat assessed as change in systolic blood pressure at 22 ug/kg, po treated for >30 mins followed by induction of postural hypotension measured immediately after postural change (reference value: 131 +/- 9 mmHg); settings: dose 22 µg/kg, 0.5 h
# Rattus norvegicus [2] = test: Effect on postural hypotension in Sprague-Dawley rat assessed as change in systolic blood pressure at 22 ug/kg, po treated for >30 mins followed by induction of postural hypotension measured 3 secs after postural change (reference value: 124 +/- 10 mmHg); settings: dose 22 µg/kg, time > 30.05 min, 0.5008 h
# Rattus norvegicus [3] = test: Effect on postural hypotension in Sprague-Dawley rat assessed as change in systolic blood pressure at 22 ug/kg, po treated for >30 mins followed by induction of postural hypotension measured 5 secs after postural change (reference value: 126 +/- 12 mmHg); settings: dose 22 µg/kg, time > 30.08 min, 0.5013 h
# Rattus norvegicus [4] = test: Effect on postural hypotension in Sprague-Dawley rat assessed as change in systolic blood pressure at 22 ug/kg, po treated for >30 mins followed by induction of postural hypotension measured 10 secs after postural change (reference value: 127 +/- 12 mmHg); settings: dose 22 µg/kg, time > 30.17 min, 0.5028 h
# Rattus norvegicus [5] = test: Effect on postural hypotension in Sprague-Dawley rat assessed as change in systolic blood pressure at 22 ug/kg, po treated for >30 mins followed by induction of postural hypotension measured 20 secs after postural change (reference value: 129 +/- 11 mmHg); settings: dose 22 µg/kg, time > 30.33 min, 0.5055 h
# Rattus norvegicus [6] = test: Effect on postural hypotension in Sprague-Dawley rat assessed as change in systolic blood pressure at 22 ug/kg, po treated for >30 mins followed by induction of postural hypotension measured 40 secs after postural change (reference value: 128 +/- 11 mmHg); settings: dose 22 µg/kg, time > 30.67 min, 0.5112 h
# Rattus norvegicus [7] = test: Effect on postural hypotension in Sprague-Dawley rat assessed as change in systolic blood pressure at 22 ug/kg, po treated for >30 mins followed by induction of postural hypotension measured 60 secs after postural change (reference value: 127 +/- 10 mmHg); settings: dose 22 µg/kg, time > 31 min
smiles,measurement,setting,value
COc1cc2nc(N3CCN(C(=O)c4ccco4)CC3)nc(N)c2cc1OC [PRAZOSIN],Activity,Rattus norvegicus [1],95 mmHg
same,Activity,Rattus norvegicus [2],81 mmHg
same,Activity,Rattus norvegicus [3],77 mmHg
same,Activity,Rattus norvegicus [4],75 mmHg
same,Activity,Rattus norvegicus [5],75 mmHg
same,Activity,Rattus norvegicus [6],74 mmHg
same,Activity,Rattus norvegicus [7],74 mmHg
